# Experimental data: patent US8426342B2, “Method for weed control in lawn” (priority 2008, dated 2013)
# Experiments:
# Poa annua = experiment: Effectivity testing against weed plants ex. 5.1, sprayable formulation on dormant Bermuda grass turf, Abbott %; assay type: in vivo
# Excerpt: (§1) Each plot was divided by different pre-treatments 1 week before application of the trial treatments: • A) Pre-treatment with glyphosate-isopropylammonium allowing to evaluate in this section the pre-emergence effect against weeds. • B) No pre-treatment, present winter annual weeds are received a post-emergence application.
# (§2) 2005, applied on dormant turf in winter
# (§3) Effectivity was rated in percent (%) herbicidal effect compared with untreated control according to the method of Abbott according to the formula [(X−Y)/X]100 where X is the absolute level/scoring of the control plants, Y is the level/scoring of the treated plants. 100% efficacy means full control; 0% efficacy means no control of the weed; all ratings above 80% are usually acceptable.
# Capsella bursa pastoris = experiment: Greenhouse herbicidal effect in weed control ex. 6.2, 2- to 3-leaves stage; assay type: in vivo; conditions: 6 g a.i./ha
# Excerpt: (§4) That means, when applying the combinations according to the invention, herbicidal effects are observed on a harmful plant species which exceed the formal total of the effects of the herbicides present when these are applied by themselves. Alternatively, it is observed in some cases that a lower application rate is required for the herbicide combination in order to achieve the same effect on a harmful plant species in comparison with the individual products.
# (§5) When the data observed already exceed the formal total (=E^A) of the data in the experiments with individual applications, they likewise exceed the expected value according to Colby, which is calculated using the formula below and is likewise regarded as an indication of synergism (cf. S. R. Colby; in Weeds 15 (1967) pp. 20 to 22): E=A+B−(A·B/100)
# (§6) In this formula: • A=action of active compound (A) in % at an application rate of a g of AS/ha; • B=action of active compound (B) in % at an application rate of b g of AS/ha; • E=expected value of the action of the combination (A)+(B) in % at the combined application rate a+b g of AS/ha.
# (§7) The data observed in the experiments show, at suitably low dosages, an action of the combinations which exceeds the expected values according to Colby (=E^C).
# Dagitaria sanguinales = experiment: Effectivity testing against weed plants ex. 5.1, Abbott %; assay type: in vivo, Digitaria sanguinales
# Excerpt: as §1, §2, §3
# [1] = tested on: Cynodon dactylon (Bermuda grass); experiment: Phytotoxicity of the turf ex. 5.1, % injury vs untreated; assay type: in vivo; conditions: 157 DAT
# Excerpt: as §1, §2
# Additionally, phytotoxicity of the turf was rated as percent (%) injury compared with untreated control.
# Taraxacum officinalis = experiment: Greenhouse herbicidal effect in weed control ex. 6.2, 1- to 2-leaves stage; assay type: in vivo; conditions: 6 g a.i./ha
# Excerpt: as §4, §5, §6, §7
# Lamium amplexcaule = experiment: Effectivity testing against weed plants ex. 5.1, Abbott %; assay type: in vivo, Lamium amplexicaule
# Excerpt: as §1, §2, §3
smiles,measurement,setting,value
"Cc1ccc2c(c1)[C@H](Nc1nc(N)nc([C@@H](C)F)n1)[C@@H](C)C2 (stereo in doubt) [(A21)/(A22), indaziflam]","Herbicidal effect (%) on Poa annua, Post-emergence application without pre-treatment","Poa annua; 50 g a.i./ha, 123 DAT",77%
same,"Herbicidal effect (%) on Poa annua, Pre-emergence application after pre-treatment","Poa annua; 50 g a.i./ha, 123 DAT",98%
same,"Herbicidal effect (%) on Poa annua, Post-emergence application without pre-treatment","Poa annua; 50 g a.i./ha, 157 DAT",95%
same,"Herbicidal effect (%) on Poa annua, Pre-emergence application after pre-treatment","Poa annua; 50 g a.i./ha, 157 DAT",100%
same,"Herbicidal effect (%) on Poa annua, Post-emergence application without pre-treatment","Poa annua; 50 g a.i./ha, 187 DAT",100%
same,"Herbicidal effect (%) on Poa annua, Pre-emergence application after pre-treatment","Poa annua; 50 g a.i./ha, 187 DAT",100%
same,"Herbicidal effect (%) on Poa annua, Post-emergence application without pre-treatment","Poa annua; 75 g a.i./ha, 123 DAT",98%
same,"Herbicidal effect (%) on Poa annua, Pre-emergence application after pre-treatment","Poa annua; 75 g a.i./ha, 123 DAT",100%
same,"Herbicidal effect (%) on Poa annua, Post-emergence application without pre-treatment","Poa annua; 75 g a.i./ha, 157 DAT",100%
same,"Herbicidal effect (%) on Poa annua, Pre-emergence application after pre-treatment","Poa annua; 75 g a.i./ha, 157 DAT",100%
same,"Herbicidal effect (%) on Poa annua, Post-emergence application without pre-treatment","Poa annua; 75 g a.i./ha, 187 DAT",100%
same,"Herbicidal effect (%) on Poa annua, Pre-emergence application after pre-treatment","Poa annua; 75 g a.i./ha, 187 DAT",100%
same,Herbicidal effect (%) 7 DAT on Capsella bursa pastoris,Capsella bursa pastoris,0%
same,"Herbicidal effect (%) on Dagitaria sanguinales, Pre-emergence application after pre-treatment","Dagitaria sanguinales; 25 g a.i./ha, 187 DAT",100%
same,"Herbicidal effect (%) on Dagitaria sanguinales, Pre-emergence application after pre-treatment","Dagitaria sanguinales; 25 g a.i./ha, 207 DAT",100%
same,"Herbicidal effect (%) on Dagitaria sanguinales, Pre-emergence application after pre-treatment","Dagitaria sanguinales; 25 g a.i./ha, 234 DAT",97%
same,"Herbicidal effect (%) on Dagitaria sanguinales, Pre-emergence application after pre-treatment","Dagitaria sanguinales; 25 g a.i./ha, 259 DAT",99%
same,"Herbicidal effect (%) on Dagitaria sanguinales, Pre-emergence application after pre-treatment","Dagitaria sanguinales; 50 g a.i./ha, 187 DAT",100%
same,"Herbicidal effect (%) on Dagitaria sanguinales, Pre-emergence application after pre-treatment","Dagitaria sanguinales; 50 g a.i./ha, 207 DAT",100%
same,"Herbicidal effect (%) on Dagitaria sanguinales, Pre-emergence application after pre-treatment","Dagitaria sanguinales; 50 g a.i./ha, 234 DAT",100%
same,"Herbicidal effect (%) on Dagitaria sanguinales, Pre-emergence application after pre-treatment","Dagitaria sanguinales; 50 g a.i./ha, 259 DAT",100%
same,"Herbicidal effect (%) on Dagitaria sanguinales, Pre-emergence application after pre-treatment","Dagitaria sanguinales; 75 g a.i./ha, 187 DAT",100%
same,"Herbicidal effect (%) on Dagitaria sanguinales, Pre-emergence application after pre-treatment","Dagitaria sanguinales; 75 g a.i./ha, 207 DAT",100%
same,"Herbicidal effect (%) on Dagitaria sanguinales, Pre-emergence application after pre-treatment","Dagitaria sanguinales; 75 g a.i./ha, 234 DAT",100%
same,"Herbicidal effect (%) on Dagitaria sanguinales, Pre-emergence application after pre-treatment","Dagitaria sanguinales; 75 g a.i./ha, 259 DAT",100%
same,Phytotoxicity (%) on Turf,"[1]; 25 g a.i./ha, section with glyphosate pre-treatment (Table 20)",0%
same,Phytotoxicity (%) on Turf,"[1]; 25 g a.i./ha, section without pre-treatment (Table 21)",0%
same,Phytotoxicity (%) on Turf,"[1]; 50 g a.i./ha, section with glyphosate pre-treatment (Table 20)",0%
same,Phytotoxicity (%) on Turf,"[1]; 50 g a.i./ha, section without pre-treatment (Table 21)",0%
same,Phytotoxicity (%) on Turf,"[1]; 75 g a.i./ha, section with glyphosate pre-treatment (Table 20)",0%
same,Phytotoxicity (%) on Turf,"[1]; 75 g a.i./ha, section without pre-treatment (Table 21)",0%
same,Herbicidal effect (%) 7 DAT on Taraxacum officinalis,Taraxacum officinalis,20%
same,"Herbicidal effect (%) on Lamium amplexcaule, Post-emergence application without pre-treatment","Lamium amplexcaule; 25 g a.i./ha, 124 DAT",91%
same,"Herbicidal effect (%) on Lamium amplexcaule, Pre-emergence application after pre-treatment","Lamium amplexcaule; 25 g a.i./ha, 124 DAT",58%
same,"Herbicidal effect (%) on Lamium amplexcaule, Post-emergence application without pre-treatment","Lamium amplexcaule; 25 g a.i./ha, 151 DAT",50%
same,"Herbicidal effect (%) on Lamium amplexcaule, Pre-emergence application after pre-treatment","Lamium amplexcaule; 25 g a.i./ha, 151 DAT",40%
same,"Herbicidal effect (%) on Lamium amplexcaule, Post-emergence application without pre-treatment","Lamium amplexcaule; 50 g a.i./ha, 124 DAT",89%
same,"Herbicidal effect (%) on Lamium amplexcaule, Pre-emergence application after pre-treatment","Lamium amplexcaule; 50 g a.i./ha, 124 DAT",100%
same,"Herbicidal effect (%) on Lamium amplexcaule, Post-emergence application without pre-treatment","Lamium amplexcaule; 50 g a.i./ha, 151 DAT",67%
same,"Herbicidal effect (%) on Lamium amplexcaule, Pre-emergence application after pre-treatment","Lamium amplexcaule; 50 g a.i./ha, 151 DAT",90%
same,"Herbicidal effect (%) on Lamium amplexcaule, Post-emergence application without pre-treatment","Lamium amplexcaule; 75 g a.i./ha, 124 DAT",83%
same,"Herbicidal effect (%) on Lamium amplexcaule, Pre-emergence application after pre-treatment","Lamium amplexcaule; 75 g a.i./ha, 124 DAT",100%
same,"Herbicidal effect (%) on Lamium amplexcaule, Post-emergence application without pre-treatment","Lamium amplexcaule; 75 g a.i./ha, 151 DAT",67%
same,"Herbicidal effect (%) on Lamium amplexcaule, Pre-emergence application after pre-treatment","Lamium amplexcaule; 75 g a.i./ha, 151 DAT",100%
